{"source": "patent US9034831B2", "about": "“Pharmaceutical composition for a hepatitis C viral protease inhibitor” (Boehringer Ingelheim International GmbH, priority 2009, dated 2015)", "test": "Solubility of drug substance in the compositions as a function of temperature", "format": "physicochemical", "settings": "in the compositions of the invention", "note": "Where a name gives a salt, the structure may show the parent alone.", "data": [{"smiles": "C=C[C@@H]1C[C@]1(NC(=O)[C@@H]1C[C@@H](Oc2cc(-c3csc(NC(=O)C(C)C)n3)nc3c(Br)c(OC)ccc23)CN1C(=O)[C@@H](NC(=O)OC1CCCC1)C(C)(C)C)C(=O)O", "note": "[Compound (1) sodium salt]", "values": [{"measurement": "solubility (temperature dependence)", "result": "increases as the temperature decreases"}]}]}
